From patent publication US8088763B2 (priority 2004, dated 2012)

Tests used:
[1] = target: T1, 5HT-uptake (Rattus norvegicus, UniProt P31652); assay: biochemical; conditions: for inhibition at 10 µM: read-out: 5HT-uptake [10 μM], % inhibition
T1 construct: synaptosomes were freshly isolated from areas of rats' brains

[2] = target: NA-uptake (Rattus norvegicus, UniProt Q63380); assay: biochemical; conditions: for inhibition at 10 µM: read-out: NA-uptake [10 μM], % inhibition
NA-uptake, sequence (Q63380 1-617): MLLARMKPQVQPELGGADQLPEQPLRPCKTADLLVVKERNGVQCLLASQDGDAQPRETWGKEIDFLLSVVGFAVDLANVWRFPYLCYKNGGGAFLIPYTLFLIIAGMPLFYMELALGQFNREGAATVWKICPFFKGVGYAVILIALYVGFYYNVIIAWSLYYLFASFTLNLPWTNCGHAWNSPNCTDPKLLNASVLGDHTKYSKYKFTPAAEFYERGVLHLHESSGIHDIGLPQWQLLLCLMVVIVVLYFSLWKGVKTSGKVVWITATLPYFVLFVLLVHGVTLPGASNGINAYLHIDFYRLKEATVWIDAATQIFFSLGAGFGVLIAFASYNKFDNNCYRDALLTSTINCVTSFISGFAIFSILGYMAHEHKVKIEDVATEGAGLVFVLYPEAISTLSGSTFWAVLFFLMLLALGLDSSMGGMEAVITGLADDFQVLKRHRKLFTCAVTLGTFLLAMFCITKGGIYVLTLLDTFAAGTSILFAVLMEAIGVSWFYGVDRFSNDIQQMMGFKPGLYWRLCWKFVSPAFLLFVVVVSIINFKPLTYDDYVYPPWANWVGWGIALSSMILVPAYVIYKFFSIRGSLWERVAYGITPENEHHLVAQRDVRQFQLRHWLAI

T1 sequence (P31652 whole entry): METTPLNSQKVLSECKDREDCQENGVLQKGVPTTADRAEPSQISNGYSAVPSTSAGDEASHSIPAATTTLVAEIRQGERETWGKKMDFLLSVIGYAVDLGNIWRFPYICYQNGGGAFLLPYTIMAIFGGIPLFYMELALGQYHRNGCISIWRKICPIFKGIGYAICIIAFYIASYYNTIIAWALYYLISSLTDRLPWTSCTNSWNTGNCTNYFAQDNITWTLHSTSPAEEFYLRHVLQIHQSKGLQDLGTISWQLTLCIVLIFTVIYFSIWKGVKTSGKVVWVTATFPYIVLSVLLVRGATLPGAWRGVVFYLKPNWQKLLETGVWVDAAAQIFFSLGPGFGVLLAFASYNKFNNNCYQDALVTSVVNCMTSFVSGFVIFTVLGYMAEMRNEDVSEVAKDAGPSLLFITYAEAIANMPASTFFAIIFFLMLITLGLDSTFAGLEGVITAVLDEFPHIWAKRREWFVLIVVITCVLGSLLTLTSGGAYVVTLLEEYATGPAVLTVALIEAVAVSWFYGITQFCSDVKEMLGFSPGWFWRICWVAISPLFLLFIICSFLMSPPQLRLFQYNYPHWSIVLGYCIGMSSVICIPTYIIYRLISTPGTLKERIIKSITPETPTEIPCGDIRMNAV

Row | Compound | inhibition at 10 µM [1] [%] | inhibition at 10 µM [2] [%] | 5HT-uptake [10 μM], % inhibition [1] [%] | NA-uptake [10 μM], % inhibition [2] [%]
1 | Cc1ccc(CC2(N(C)C)CCC(NC(=O)CCC(=O)N3CCN(c4cccc(C)c4C)CC3)CC2)cc1 (centres unmarked) [Example 58, N-[4-dimethylamino-4-(4-methyl-benzyl)-cyclohexyl]-4-[4-(2,3-dimethyl-phenyl)-piperazin-1-yl]-4-oxo-butyramide] | 93 | 79 |  | 
2 | CC1CCN(C(=O)CCC(=O)NC2CCC(Cc3ccc(Cl)cc3)(N(C)C)CC2)CC1 (centres unmarked) [Example 60, N-[4-(4-chloro-benzyl)-4-dimethylamino-cyclohexyl]-4-(4-methyl-piperidin-1-yl)-4-oxobutyramide] | 93 | 71 |  | 
3 | Cc1ccc(CC2(N(C)C)CCC(NC(=O)CCC(=O)NC(C)C(=O)OC(C)(C)C)CC2)cc1 (centres unmarked) [Example 61, 2-{3-[4-dimethylamino-4-(4-methyl-benzyl)-cyclohexylcarbamoyl]-propionylamino}-propanoic acid-tert-butylester] | 92 | 93 |  | 
4 | CN(C)C1(Cc2ccccc2)CCC(NC(=O)CCCC(=O)N2CCN(C3CCCCCC3)CC2)CC1 (centres unmarked) [Example 62, 5-(4-cycloheptyl-piperazin-1-yl)-5-oxo-valeric acid (4-benzyl-4-dimethylamino-cyclohexyl)-amide] | 100 | 86 |  | 
5 | CN(C)C1(Cc2ccc(Cl)cc2)CCC(NC(=O)CCC(=O)N2CCC3(CC2)OCCO3)CC1 (centres unmarked) [Example 65, N-[4-(4-chloro-benzyl)-4-dimethylamino-cyclohexyl]-4-(1,4-dioxa-8-aza-spiro[4.5]dec-8-yl)-4-oxo-butyramide] | 92 | 84 |  | 
6 | Cc1cccc(CC2(N(C)C)CCC(NC(=O)CCC(=O)N3CCC(C(=O)c4ccccc4)CC3)CC2)c1 (centres unmarked) [Example 67, 4-(4-benzoyl-piperidin-1-yl)-N-[4-dimethylamino-4-(3-methyl-benzyl)-cyclohexyl]-4-oxo-butyramide] | 98 | 96 |  | 
7 | COc1ccc(CNC(=O)CCC(=O)NC2CCC(Cc3ccc(Cl)cc3)(N(C)C)CC2)c(OC)c1 (centres unmarked) [Example 68, N-[4-(4-chloro-benzyl)-4-dimethylamino-cyclohexyl]-N′-(2,4-dimethoxy-benzyl)-succinamide] | 98 | 85 |  | 
8 | CCN(Cc1ccncc1)C(=O)CCC(=O)NC1CCC(Cc2ccc(Cl)cc2)(N(C)C)CC1 (centres unmarked) [Example 70, N-[4-(4-chloro-benzyl)-4-dimethylamino-cyclohexyl]-N′-ethyl-N′-pyridin-4-ylmethyl-succinamide] | 93 | 96 |  | 
9 | COc1ccc(CCN(C)C(=O)CCC(=O)NC2CCC(Cc3cccc(C)c3)(N(C)C)CC2)cc1OC (centres unmarked) [Example 71, N-[2-(3,4-dimethoxy-phenyl)-ethyl]-N′-[4-dimethylamino-4-(3-methyl-benzyl)-cyclohexyl]-N-methyl-succinamide] | 92 | 94 |  | 
10 | CN(Cc1cccnc1)C(=O)CCC(=O)NC1CCC(Cc2ccc(Cl)cc2)(N(C)C)CC1 (centres unmarked) [Example 72, N-[4-(4-chloro-benzyl)-4-dimethylamino-cyclohexyl]-N′-methyl-N′-pyridin-3-ylmethyl-succinamide] | 95 | 70 |  | 
11 | CN(C)C1(Cc2cccc(Cl)c2)CCC(NC(=O)CCC(=O)NCc2ccccn2)CC1 (centres unmarked) [Example 73, N-[4-(3-chloro-benzyl)-4-dimethylamino-cyclohexyl]-N′-pyridin-2-ylmethyl-succinamide] | 93 | 87 |  | 
12 | COc1ccc(NC(=O)CCC(=O)NC2CCC(Cc3cccc(C)c3)(N(C)C)CC2)cc1 (centres unmarked) [Example 75, N-[4-dimethylamino-4-(3-methyl-benzyl)-cyclohexyl]-N′-(4-methoxy-phenyl)-succinamide] | 97 | 99 |  | 
13 | COc1ccc(N2CCN(C(=O)CCC(=O)NC3CCC(Cc4ccc(C)cc4)(N(C)C)CC3)CC2)cc1 (centres unmarked) [Example 79, N-[4-dimethylamino-4-(4-methyl-benzyl)-cyclohexyl]-4-[4-(4-methoxy-phenyl)-piperazin-1-yl]-4-oxo-butyramide] | 96 | 95 |  | 
14 | CC(CCc1ccccc1)NC(=O)CCC(=O)NC1CCC(Cc2ccc(Cl)cc2)(N(C)C)CC1 (centres unmarked) [Example 83, N-[4-(4-chloro-benzyl)-4-dimethylamino-cyclohexyl]-N′-(1-methyl-3-phenyl-propyl)-succinamide] | 93 | 105 |  | 
15 | CCOC(=O)N1CCN(C(=O)CCC(=O)NC2CCC(Cc3cccc(Cl)c3)(N(C)C)CC2)CC1 (centres unmarked) [Example 84, 4-{3-[4-(3-chloro-benzyl)-4-dimethylamino-cyclohexylcarbamoyl]-propionyl}-piperazin-1-carboxylic acid ethylester] | 95 | 96 |  | 
16 | COc1ccc(CNC(=O)CCC(=O)NC2CCC(Cc3cccc(C)c3)(N(C)C)CC2)cc1 (centres unmarked) [Example 85, N-[4-dimethylamino-4-(3-methyl-benzyl)-cyclohexyl]-N′-(4-methoxy-benzyl)-succinamide] | 94 | 100 |  | 

Row | Compound | inhibition at 10 µM [1] [%] | inhibition at 10 µM [2] [%] | 5HT-uptake [10 μM], % inhibition [1] [%] | NA-uptake [10 μM], % inhibition [2] [%]
17 | CC1CN(C(=O)CCC(=O)NC2CCC(Cc3ccc(Cl)cc3)(N(C)C)CC2)CC(C)O1 (centres unmarked) [Example 86, N-[4-(4-chloro-benzyl)-4-dimethylamino-cyclohexyl]-4-(2,6-dimethyl-morpholin-4-yl)-4-oxo-butyramide] | 92 | 76 |  | 
18 | Cc1ccc(CC2(N(C)C)CCC(NC(=O)CCC(=O)N3CC=C(c4ccccc4)CC3)CC2)cc1 (centres unmarked) [Example 87, N-[4-dimethylamino-4-(4-methyl-benzyl)-cyclohexyl]-4-oxo-4-(4-phenyl-3,6-dihydro-2H-pyridin-1-yl)-butyramide] | 96 | 94 |  | 
19 | CN(C)C1(Cc2ccc(Cl)cc2)CCC(NC(=O)CCC(=O)NCCc2cccc(F)c2)CC1 (centres unmarked) [Example 88, N-[4-(4-chloro-benzyl)-4-dimethylamino-cyclohexyl]-N′-[2-(3-fluoro-phenyl)-ethyl]-succinamide] | 97 | 102 |  | 
20 | C=CCOc1ccc(CN2CCN(C(=O)CCC(=O)NC3CCC(Cc4cccc(C)c4)(N(C)C)CC3)CC2)cc1 (centres unmarked) [Example 89, 4-[4-(4-allyloxy-benzyl)-piperazin-1-yl]-N-[4-dimethylamino-4-(3-methyl-benzyl)-cyclohexyl]-4-oxo-butyramide] | 94 | 98 |  | 
21 | COc1cccc(N2CCN(C(=O)CCCC(=O)NC3CCC(Cc4ccccc4)(N(C)C)CC3)CC2)c1 (centres unmarked) [Example 91, 5-[4-(3-methoxy-phenyl)-piperazin-1-yl]-5-oxo-valeric acid (4-benzyl-4-dimethylamino-cyclohexyl)-amide] | 92 | 101 |  | 
22 | CC1CCN(C(=O)CCC(=O)NC2CCC(Cc3cccc(Cl)c3)(N(C)C)CC2)CC1 (centres unmarked) [Example 92, N-[4-(3-chloro-benzyl)-4-dimethylamino-cyclohexyl]-4-(4-methyl-piperidin-1-yl)-4-oxo-butyramide] | 92 | 89 |  | 
23 | CCOP(=O)(Cc1ccc(NC(=O)CCC(=O)NC2CCC(Cc3ccc(Cl)cc3)(N(C)C)CC2)cc1)OCC (centres unmarked) [Example 93, (4-{3-[4-(4-chloro-benzyl)-4-dimethylamino-cyclohexylcarbamoyl]-propionylamino}-benzyl)-phosphonic acid diethylester] | 92 | 75 |  | 
24 | Cc1ccc(CC2(N(C)C)CCC(NC(=O)CCC(=O)N3CCN(c4ccccc4C)CC3)CC2)cc1 (centres unmarked) [Example 94, N-[4-dimethylamino-4-(4-methyl-benzyl)-cyclohexyl]-4-oxo-4-(4-o-tolyl-piperazin-1-yl)-butyramide] | 92 | 86 |  | 
25 | Cc1ccc(CC2(N(C)C)CCC(NC(=O)CCC(=O)N3CCN(c4ccc(Cl)cc4)CC3)CC2)cc1 (centres unmarked) [Example 96, 4-[4-(4-chloro-phenyl)-piperazin-1-yl]-N-[4-dimethylamino-4-(4-methyl-benzyl)-cyclohexyl]-4-oxo-butyramide] | 94 | 87 |  | 
26 | CN(C)C1(Cc2ccc(Cl)cc2)CCC(NC(=O)CCC(=O)NC2CCN(Cc3ccc(C(F)(F)F)cc3)C2)CC1 (centres unmarked) [Example 98, N-[4-(4-chloro-benzyl)-4-dimethylamino-cyclohexyl]-N′-[1-(4-trifluoromethyl-benzyl)-pyrrolidin-3-yl]-succinamide] | 92 | 74 |  | 
27 | CN(C)C1(Cc2cccc(Cl)c2)CCC(NC(=O)CCC(=O)NCCc2c[nH]c3ccccc23)CC1 (centres unmarked) [Example 99, N-[4-(3-chloro-benzyl)-4-dimethylamino-cyclohexyl]-N′-[2-(1H-indol-3-yl)-ethyl]-succinamicle] |  |  | 94 | 99
28 | CN(C)C1(Cc2ccc(Cl)cc2)CCC(NC(=O)CCC(=O)Nc2ccc3c(c2)CCC3)CC1 (centres unmarked) [Example 100, N-[4-(4-chloro-benzyl)-4-dimethylamino-cyclohexyl]-N′-indan-5-yl-succinamide] | 92 | 77 |  | 
29 | Cc1ccc(CC2(N(C)C)CCC(NC(=O)CCC(=O)Nc3ccc(OCc4ccccc4)cc3)CC2)cc1 (centres unmarked) [Example 101, N-(4-benzyloxy-phenyl)-N′-[4-dimethylamino-4-(4-methyl-benzyl)-cyclohexyl]-succinamide] | 94 | 77 |  | 
30 | CCC(C)C(NC(=O)CCC(=O)NC1CCC(Cc2cccc(C)c2)(N(C)C)CC1)C(=O)OC(C)(C)C (centres unmarked) [Example 102, 2-{3-[4-dimethylamino-4-(3-methyl-benzyl)-cyclohexylcarbamoyl]-propionylamino}-3-methyl-valeric acid tert-butyl ester] | 94 | 105 |  | 
31 | Cc1cccc(CC2(N(C)C)CCC(NC(=O)CCC(=O)N3CCC(Cc4ccccc4)CC3)CC2)c1 (centres unmarked) [Example 103, 4-(4-benzyl-piperidin-1-yl)-N-[4-dimethylamino-4-(3-methyl-benzyl)-cyclohexyl]-4-oxo-butyramide] | 94 | 108 |  | 
